Test results: the supplement of paper PMC11451515

Tested on: SEM cells
Assay: cell viability relative to DMSO control; higher = less cytotoxic
Details: 48 h
Summary of the method: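 Viability values are per-plate percentages of DMSO wells, with background from cell-free wells. Library compounds in DMSO were pin-dosed, in an 11-point threefold series from 47 μM to 0.79 nM, onto NOMO1 or SEM (500 cells/well) or P12-Ichikawa (1000 cells/well) leukemia cells in 1536-well plates (5 μl). Those cells had been adapted for at least four passages in each medium, and CellTiter-Glo One luminescence was read after 48 h at 37°C.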

[1] = HPLM + 10% dialyzed FBS, 0.000781 µM
[2] = HPLM + 10% dialyzed FBS, 0.00234 µM
[3] = HPLM + 10% dialyzed FBS, 0.00702 µM
[4] = HPLM + 10% dialyzed FBS, 0.0211 µM
[5] = HPLM + 10% dialyzed FBS, 0.0632 µM
[6] = HPLM + 10% dialyzed FBS, 0.19 µM
[7] = HPLM + 10% dialyzed FBS, 0.569 µM
[8] = HPLM + 10% dialyzed FBS, 1.71 µM
[9] = HPLM + 10% dialyzed FBS, 5.12 µM
[10] = HPLM + 10% dialyzed FBS, 15.4 µM
[11] = HPLM + 10% dialyzed FBS, 46.1 µM
[12] = RPMI 5 mM glucose + 10% FBS, 0.000781 µM
[13] = RPMI 5 mM glucose + 10% FBS, 0.00234 µM
[14] = RPMI 5 mM glucose + 10% FBS, 0.00702 µM
[15] = RPMI 5 mM glucose + 10% FBS, 0.0211 µM
[16] = RPMI 5 mM glucose + 10% FBS, 0.0632 µM
[17] = RPMI 5 mM glucose + 10% FBS, 0.19 µM
[18] = RPMI 5 mM glucose + 10% FBS, 0.569 µM
[19] = RPMI 5 mM glucose + 10% FBS, 1.71 µM
[20] = RPMI 5 mM glucose + 10% FBS, 5.12 µM
[21] = RPMI 5 mM glucose + 10% FBS, 15.4 µM
[22] = RPMI 5 mM glucose + 10% FBS, 46.1 µM
[23] = RPMI 5 mM glucose + 10% dialyzed FBS, 0.000781 µM
[24] = RPMI 5 mM glucose + 10% dialyzed FBS, 0.00234 µM
[25] = RPMI 5 mM glucose + 10% dialyzed FBS, 0.00702 µM
[26] = RPMI 5 mM glucose + 10% dialyzed FBS, 0.0211 µM
[27] = RPMI 5 mM glucose + 10% dialyzed FBS, 0.0632 µM
[28] = RPMI 5 mM glucose + 10% dialyzed FBS, 0.19 µM
[29] = RPMI 5 mM glucose + 10% dialyzed FBS, 0.569 µM
[30] = RPMI 5 mM glucose + 10% dialyzed FBS, 1.71 µM
[31] = RPMI 5 mM glucose + 10% dialyzed FBS, 5.12 µM
[32] = RPMI 5 mM glucose + 10% dialyzed FBS, 15.4 µM
[33] = RPMI 5 mM glucose + 10% dialyzed FBS, 46.1 µM

Row | SMILES | cell viability [1] [%] | cell viability [2] [%] | cell viability [3] [%] | cell viability [4] [%] | cell viability [5] [%] | cell viability [6] [%] | cell viability [7] [%] | cell viability [8] [%] | cell viability [9] [%] | cell viability [10] [%] | cell viability [11] [%] | cell viability [12] [%] | cell viability [13] [%] | cell viability [14] [%] | cell viability [15] [%] | cell viability [16] [%] | cell viability [17] [%] | cell viability [18] [%] | cell viability [19] [%] | cell viability [20] [%] | cell viability [21] [%] | cell viability [22] [%] | cell viability [23] [%] | cell viability [24] [%] | cell viability [25] [%] | cell viability [26] [%] | cell viability [27] [%] | cell viability [28] [%] | cell viability [29] [%] | cell viability [30] [%] | cell viability [31] [%] | cell viability [32] [%] | cell viability [33] [%]
1 | O=C(CCCN1CCN(c2ccc(F)cc2)CC1)NC1c2ccccc2CSc2ccccc21 (configuration not stated) | 111 | 135 | 116 | 126 | 131 | 121 | 33.8 | 126 | 113 | 118 | 89.6 | 128 | 112 | 115 | 115 | 120 | 118 | 51 | 103 | 101 | 92 | 49.9 | 112 | 122 | 102 | 104 | 123 | 112 | 40.7 | 113 | 95.3 | 81.2 | 43.6
2 | Cc1coc2c1C(=O)C(=O)c1c-2ccc2c1CCCC2(C)C | 112 | 98.6 | 104 | 102 | 96.8 | 97 | 97.1 | 102 | 99.6 | 85.2 | 87.4 | 112 | 108 | 107 | 109 | 101 | 99.6 | 104 | 95.8 | 97.1 | 79.9 | 80.7 | 96.7 | 99.7 | 102 | 97.4 | 90.3 | 88 | 82.6 | 76 | 75.1 | 78.4 | 84.3
3 | CC1=CC(=CC(=C1C\C2=N\CCN2)C)C(C)(C)C | 58.5 | 90.1 | 83.4 | 100 | 88.3 | 98.1 | 97.4 | 100 | 106 | 107 | 77.6 | 77.8 | 104 | 91.7 | 101 | 103 | 96.4 | 110 | 104 | 110 | 83.3 | 94.9 | 89.1 | 96.3 | 102 | 105 | 118 | 107 | 118 | 112 | 113 | 120 | 94.7
4 | NC(=O)c1ccc(N(C(N)=O)c2c(F)cccc2F)nc1-c1ccc(F)cc1F | 85.2 | 81.2 | 88.2 | 79.5 | 89.5 | 94 | 106 | 99.7 | 88.5 | 51.7 | 77.5 | 116 | 88.8 | 80.1 | 97.4 | 119 | 95 | 89 | 104 | 102 | 52.3 | 94.9 | 87.6 | 86.7 | 89.4 | 94.7 | 93.2 | 94.9 | 88.3 | 100 | 92.1 | 41.1 | 66.8
5 | CNc1nc(Nc2cnn([C@H]3CCN(C4COC4)C[C@@H]3F)c2Cl)ncc1C(F)(F)F | 96 | 89.1 | 97.7 | 103 | 109 | 105 | 112 | 93.1 | 37.7 | 20.9 | 26.5 | 103 | 123 | 108 | 112 | 85.3 | 55.7 | 65.5 | 20.1 | 18.9 | 16.1 | 17.6 | 101 | 106 | 112 | 116 | 126 | 106 | 106 | 73.6 | 32 | 17.6 | 17.1
6 | CN1CCCN(CC1)C2=CC=C3C(=O)\C(=C/4SC5=C(C=CC=C5)N4C3=N2)C(=O)NCC6=CN=C(C)C=N6 | 110 | 102 | 114 | 91.7 | 97.9 | 103 | 82.2 | 88.1 | 81.2 | 73.6 | 41.6 |  |  |  |  |  |  |  |  |  |  |  | 89.6 | 93.9 | 97.5 | 92.7 | 98.1 | 79.5 | 68.2 | 71.3 | 70.5 | 56.3 | 33.1
7 | O=C(O)c1cccnc1Nc1cccc(C(F)(F)F)c1 | 92.1 | 105 | 99.1 | 103 | 119 | 117 | 40.9 | 65.2 | 117 | 120 | 111 | 102 | 97.1 | 90.9 | 106 | 108 | 111 | 65.9 | 55.2 | 98.5 | 80.6 | 75.6 | 105 | 133 | 110 | 106 | 119 | 125 | 59.5 | 54.7 | 121 | 108 | 107
8 | CNCC[C@H](Oc1cccc2ccccc12)c1cccs1 | 121 | 128 | 110 | 122 | 121 | 130 | 111 | 99.4 | 110 | 84.2 | 46.4 | 124 | 117 | 119 | 116 | 110 | 136 | 111 | 107 | 86 | 96.2 | 24 |  |  |  |  |  |  |  |  |  |  | 
